{
  "source": "patent US20120213826A1",
  "about": "“Use of Pro-Inflammatory Compounds for Promoting Bone Formation” (Imperial Innovations Limited, priority 2009, published 2012)",
  "key": {"[1]": {"tested_on": "murine open tibial fracture", "test": "Murine open tibial fracture model, periosteally stripped (histology, CT scans)", "type": "in vivo, C57BI/6 mice"}, "[2]": {"tested_on": "muscle-derived stromal cells (MDSC)", "test": "Bone nodule formation by MDSC (alizarin red staining)", "type": "cell-based, human", "from_the_text": "FIG. 26 TNF-α and IL-6 promote osteogenic differentiation of MDSC A-D: ALP quantification assays after culture of 1×10^4 MDSC for 7 days in a 96-well plate in triplicate with: A: fracture supernatant, ±antibody neutralization of BMPs 2/4 7 and to TGF-β. The immunoglobulin isotype controls used included IgG^1 for AbBMP-2/4 and AbTGF-β, and IgG^2B for Ab-BMP-7. B: human serum containing culture medium with the addition of recombinant human BMPs and TGF-β. C: fracture supernatant±antibody neutralization of TNF-α, IL-6 and IL-1β. The IgG^1 immunoglobulin was used as the antibody isotype control. D: human serum-containing culture medium with the addition of recombinant human TNF-α, IL-6 and IL-1β. E: Alizarin red staining for bone nodule formation after culture of 1×10^4 MDSC in human serum-containing media. Recombinant human cytokine at the optimal dose indicated by D, was added for the first 3 days ONLY, and the cells were subsequently cultured in media for 32 days. A representative image from a single well is shown. All experiments were performed 3 times, in triplicate (n=3) using MDSC from 3 donors. Values for A-D represent a mean from 3 experiments ±SEM, using supernatant from 3 donors in A and C. *: P<0.05; **: P<0.01; ***: P<0.001; 1-way ANOVA with Bonferroni's multiple comparison test in A and C and with Dunnett's multiple comparison test against the media only control in B and D.\n1×10^4 MDSC were added to wells of a 24-well plate in triplicate. The cells were cultured for 35-40 days in osteogenic media (DMEM with 10% fetal calf serum and 1% penicillin/streptomycin also containing 100 nM dexamethasone (SIGMA), 1 mM β-glycerol phosphate and […] ascorbic acid), supernatant or media containing recombinant cytokines (with one media change per week) the cells were fixed with 2 ml 10% neutral buffered formalin at room temperature for 15 min. The plate was then washed twice with excess PBS. 1 ml filtered 40 mM alizarin red solution (pH 4.1) was added to each well and agitated at room temperature for 30 minutes. The excess dye was then aspirated and the plate washed four times in distilled water with gentle agitation. Finally, the plates were turned upside-down on paper to dry. Bone nodules appeared red under light microscopy. Images were taken at 20 times magnification and performed as above."}, "fractured ribs": {"tested_on": "fractured ribs", "details": "daily intraperitoneal 400 μg/kg body weight per day after fracture, rats; cited from earlier work"}, "[3]": {"tested_on": "muscle-derived stromal cells (MDSC)", "test": "MDSC proliferation (CellTiter-Glo luminescent cell viability assay)", "type": "cell-based, human", "experimental": "CellTiter-Glo® luminescent cell viability assay for MDSC in culture with A: TNF-α, B: IL-6 and C: IL-1β. 2.5×10^3 cells were cultured in triplicate for 1, 3 and 5 days in human serum-containing media ± recombinant human cytokine at the concentration indicated. The number of viaBIe cells in culture was determined using the assay, where luminescent signal is directly proportional to the concentration of ATP from viaBIe cells.\nIn order to test this hypothesis, proliferation of MDSC in human serum-containing media with rhTNF-α, rhIL-6 and rhIL-1β was tested using the CellTiter-Glo® luminescent cell viability assay was used (Promega Corp., Madison, Wis.).\nThis method assays the number of viaBIe cells in culture, by measuring adenosine triphosphate (ATP), where the luminescent signal is directly proportional to the number of ATP present."}, "[4]": {"tested_on": "muscle-derived stromal cells (MDSC)", "test": "MDSC migration through a transwell membrane", "type": "cell-based, human", "experimental": "Migration of 1×10^4 MDSC through an 8 μm pore transwell membrane over 36 hours, in response to fracture supernatant with the addition of AbTNF-α, AbIL-6 and AbIL-1β. The IgG^1 immunoglobulin was used as the antibody control. B: Migration in response to rhTNF-α, rhIL-6 and rhIL-1β in human serum-containing media. Results represent change in cell number, expressed as a percentage of the supernatant, or media only control. Each experiment was performed 3 times (n=3) using 3 fracture supernatants (in A). Results represent mean of 3 experiments ±SEM. *: P<0.05; **: P<0.01; ***: P<0.001; 1-way ANOVA with Bonferroni's multiple comparison test.\nMDSC must be recruited to the fracture site from adjacent muscle. Next we assessed the efficacy of the pro-inflammatory cytokines in attracting MDSC in vitro using a transwell assay. 1×10^4 MDSC were seeded onto a 8 μm transwell membrane in serum free media. Next day, the transwell membrane was added to a well containing 10% human serum-containing media +IL-1β, IL6 and TNFα at the end concentrations shown. At 24 hrs the membrane was cleared of any cells on the seeded side, fixed and stained. IL-1β appeared not promote MDSC chemotaxis.\n500 μl serum free media was added to each well of a 24 well plate. 8 μm pore transwell membranes (VWR International Ltd) were then added to the wells. 1×10^4 MDSC in serum free media were added to the upper chamber of each transwell membrane. At 12 hours the serum-free media was replaced with test or control media or supernatant and incubated at 37° C. for 36 hours. The upper chambers were then cleared of cells and cell debris using a cotton bud, in sweeping motions. The membrane was then washed and fixed using 10% neutral buffered formalin for 1 hour. After washing, the membrane was then added to a 1% crystal violet solution for 1 hour. After further washing, the membranes were viewed under light microscopy at 20 times magnification, using an Olympus CKX41 microscope with a QICAM camera, (QIMAGING, GT vision LLC). The number of cells present on the underside of the transwell membrane in any random field was counted 3 times and the mean calculated. Cell migration was calculated against the supernatant or human serum-containing (control) media and the number expressed as a percentage relative to the control media."}, "[5]": {"details": "cited from earlier work"}},
  "note": "Entries after “also recorded” stand apart in the source; their conditions may differ. Like-named read-outs stand apart in the source and are kept apart here.",
  "data": [
    {"substance": "TNFα", "values": [
      {"measurement": "optimal dose for fracture healing", "setting": "[1]; 20 μl in PBS at fracture site, histology day 14 (FIG. 18)", "result": 50, "unit": "ng/mL"},
      {"measurement": "optimal dose range for fracture healing", "setting": "[1]; 20 μl in PBS, 1 ng/ml equivalent to 1 ng/kg, histology day 14 (FIG. 18)", "result": "around 50 ng/kg"},
      {"measurement": "healing of tibial fractures by CT scans", "setting": "[1]; 28 days post injury, local administration at fracture site (TNFα 50 ng/kg and HMGB1 at time of fracture and 24 hr later) (FIG. 19, 30)", "result": "improved healing"},
      {"measurement": "fracture healing", "setting": "[1]; TNFα 5 ng/ml at fracture site (FIG. 18)", "result": "less pronounced effect"},
      {"measurement": "fracture healing", "setting": "[1]; TNFα 500 ng/ml (500 ng/kg) at fracture site, versus PBS vehicle (FIG. 18)", "result": "inhibitory"},
      {"measurement": "fracture healing", "setting": "[1]; TNFα 500 ng/ml (500 ng/kg) at fracture site, versus PBS vehicle (FIG. 18), listed as rhTNFα", "result": "inhibits fracture healing"},
      {"measurement": "fracture healing compared to control C57BI/6 mice", "setting": "[1]; exogenous addition at fracture site, histology day 14, log dose range 5-500 ng/ml (FIG. 18)", "result": "accelerated fracture healing"},
      {"measurement": "bone nodule formation by MDSC", "setting": "[2]; Example 1, cytokine at 1 ng/ml, 5 weeks (FIG. 13)", "result": "promoted; also recorded: pronounced bone nodule formation"},
      {"measurement": "bone nodule formation by MDSC", "setting": "[2]; Example 3, recombinant cytokine at optimal dose for first 3 days, human serum-containing media (FIG. 26E)", "result": "stimulated vigorous nodule formation"},
      {"measurement": "fracture healing", "setting": "fractured ribs", "result": "significantly inhibited"},
      {"measurement": "proliferation of MDSC", "setting": "[3]; Example 1 discussion, TNFα 1 ng/ml", "result": "led to proliferation of MDSC"},
      {"measurement": "MDSC proliferation", "setting": "[3]; Example 3, 1, 3 and 5 days in human serum-containing media ± recombinant human cytokine (FIG. 28)", "result": "do not promote MDSC proliferation"},
      {"measurement": "chemotaxis / migration of MDSC", "setting": "[4]; Example 1, transwell, 10% human serum-containing media, 24 hrs (FIG. 14)", "result": "promote chemotaxis of MDSC; also recorded: promoted migration of MDSC"},
      {"measurement": "migration of MDSC", "setting": "[4]; Example 3, 8 μm transwell, 36 hours, recombinant cytokine in human serum-containing media (FIG. 27B)", "result": "chemo attractant for MDSC"},
      {"measurement": "optimal concentration for MDSC migration", "setting": "[4]; Example 3, transwell, 36 hours (FIG. 27B)", "result": 1, "unit": "pg/mL"},
      {"measurement": "plasma half life", "setting": "[5]; in the presence of soluble TNFα receptors", "result": "up to 6 hours"},
      {"measurement": "plasma half life", "setting": "[5]; in vivo", "result": "less than 1 hour"}
    ]}
  ]
}
